Results on one molecule are retold here after patent publication US20220235005A1, “FUNGICIDAL N-(PYRID-3-YL)CARBOXAMIDES” (BASF SE, priority 2019, published 2022).

With `Cc1cc(NC(=O)/C(=N/OCC(C)C)c2ccccc2)cnc1C` [Ex-8, (2E)-N-(5,6-dimethyl-3-pyridyl)-2-isobutoxyimino-2-phenyl-acetamide], the melting point stood at 169 °C.
